Reference: ChEMBL document CHEMBL5247646, “Discovery of 2-Aminopyrimidines as Potent Agonists for the Bitter Taste Receptor TAS2R14” (J Med Chem, 2023)

Molecular target: T1, Taste receptor type 2 member 14 (Homo sapiens, UniProt Q9NYV8)
T1 sequence (Q9NYV8 whole entry): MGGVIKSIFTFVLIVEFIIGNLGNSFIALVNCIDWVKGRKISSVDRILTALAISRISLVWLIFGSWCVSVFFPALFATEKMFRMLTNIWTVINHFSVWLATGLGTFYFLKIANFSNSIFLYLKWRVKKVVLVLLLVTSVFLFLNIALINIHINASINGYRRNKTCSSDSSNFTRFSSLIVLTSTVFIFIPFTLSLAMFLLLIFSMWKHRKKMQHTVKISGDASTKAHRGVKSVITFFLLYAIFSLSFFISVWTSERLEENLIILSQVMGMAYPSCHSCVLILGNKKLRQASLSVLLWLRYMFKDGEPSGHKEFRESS
Test: Agonist activity at human TAS2R14 transfected in HEK293T cells assessed as IP1 accumulation measured after 150 mins by IP1 accumulation assay
Assay type: cell-based
Details: not given

Compound | EC50 [nM]
N#Cc1cc(C(F)(F)F)nc(Nc2ccccc2-c2nnn[nH]2)n1 | 300
O=C(O)c1ccccc1Nc1cccc(C(F)(F)F)n1 | 670
FC(F)(F)c1nccc(Nc2ccccc2-c2nnn[nH]2)n1 | 1100
O=C(O)c1ccccc1Nc1cc(C(F)(F)F)ccc1Br | 640
FC(F)(F)c1cccc(Nc2ccccc2-c2nnn[nH]2)n1 | 98
CC#Cc1cc(Nc2ccccc2C(=O)O)cc(C(F)(F)F)c1 | 380
FC(F)(F)c1cc(I)nc(Nc2ccccc2-c2nnn[nH]2)n1 | 750
O=C(O)c1ccccc1Nc1cccc(OC(F)F)c1 | 930
Cc1c(Nc2ccccc2C(=O)O)cccc1C(F)(F)F | 1800
FC(F)(F)c1cc(Cl)nc(Nc2ccccc2-c2nnn[nH]2)n1 | 540
Cc1cc(Nc2ccccc2C(=O)O)cc(C(F)(F)F)c1 | 190
O=C(O)c1ccccc1Nc1ccc(Br)c(C(F)(F)F)c1 | 300
O=C(O)c1ccccc1Nc1cncc(C(F)(F)F)c1 | 1200
Oc1cc(C(F)(F)F)nc(Nc2ccccc2-c2nnn[nH]2)n1 | 6800
O=C(O)c1ccccc1Nc1cccc(Cl)c1 | 950
N#Cc1ccc(C(F)(F)F)cc1Nc1ccccc1C(=O)O | 420

Compound | EC50 [nM]
FC(F)(F)c1ccnc(Nc2ccccc2-c2nnn[nH]2)n1 | 160
O=C(O)c1ccccc1Nc1cccc(C(F)(F)F)c1Br | 2100
CC(C)(C)c1cc(C(F)(F)F)nc(Nc2ccccc2-c2nnn[nH]2)n1 | 640
Cc1ccc(C(F)(F)F)cc1Nc1ccccc1C(=O)O | 390
FC(F)(F)c1ccnc(Nc2ccccc2-c2nnn[nH]2)c1 | 360
O=C(O)c1ccccc1Nc1cc(Br)cc(C(F)(F)F)c1 | 230
C#Cc1cc(Nc2ccccc2C(=O)O)cc(C(F)(F)F)c1 | 150
O=C(O)c1ccccc1Nc1nccc(C(F)(F)F)n1 | 1600
Cc1ccc(Nc2ccccc2C(=O)O)cc1C(F)(F)F | 330
O=C(O)c1ccccc1Nc1cccc(S(F)(F)(F)(F)F)c1 | 190
Cc1cc(C(F)(F)F)nc(Nc2ccccc2-c2nnn[nH]2)n1 | 72
C#Cc1cc(C(F)(F)F)nc(Nc2ccccc2-c2nnn[nH]2)n1 | 1400
N#Cc1ccc(Nc2ccccc2C(=O)O)cc1C(F)(F)F | 170
N#Cc1cc(Nc2ccccc2C(=O)O)cc(C(F)(F)F)c1 | 180
FC(F)(F)c1cc(Nc2ccccc2-c2nnn[nH]2)ccn1 | 3500

Molecular target: T2, Taste receptor type 2 member 14 (Homo sapiens) (UniProt Q9NYV8)
T2 sequence (whole entry): T1 sequence (Q9NYV8 whole entry)
Test: Agonist activity at human TAS2R14 transfected in HEK293T cells assessed as IP1 accumulation at 30 uM measured after 150 mins by IP1 accumulation assay relative to flufenamic acid
Assay type: cell-based
Details: not given

Compound | Emax [%]
O=C(O)c1cccc(Nc2cccc(C(F)(F)F)c2)c1 | 27

Same assay, conditions: filed as agonist

Compound | Emax [%]
O=C(O)c1ccccc1Nc1cc(C#CC2CCCC2)cc(C(F)(F)F)c1 | 64
CN(c1cccc(C(F)(F)F)c1)c1ccccc1C(=O)O | 59

Molecular target: T2, Taste receptor type 2 member 14 (Homo sapiens)
Test: Agonist activity at human TAS2R14 transfected in HEK293T cells assessed as IP1 accumulation at 10 uM measured after 150 mins by IP1 accumulation assay relative to flufenamic acid
Assay type: cell-based
Details: filed as agonist

Compound | Emax [%]
O=C(O)c1ccccc1Nc1ccnc(C(F)(F)F)c1 | 52

Molecular target: T3, Alpha-2B adrenergic receptor (Homo sapiens, UniProt P18089)
T3 sequence (P18089 whole entry): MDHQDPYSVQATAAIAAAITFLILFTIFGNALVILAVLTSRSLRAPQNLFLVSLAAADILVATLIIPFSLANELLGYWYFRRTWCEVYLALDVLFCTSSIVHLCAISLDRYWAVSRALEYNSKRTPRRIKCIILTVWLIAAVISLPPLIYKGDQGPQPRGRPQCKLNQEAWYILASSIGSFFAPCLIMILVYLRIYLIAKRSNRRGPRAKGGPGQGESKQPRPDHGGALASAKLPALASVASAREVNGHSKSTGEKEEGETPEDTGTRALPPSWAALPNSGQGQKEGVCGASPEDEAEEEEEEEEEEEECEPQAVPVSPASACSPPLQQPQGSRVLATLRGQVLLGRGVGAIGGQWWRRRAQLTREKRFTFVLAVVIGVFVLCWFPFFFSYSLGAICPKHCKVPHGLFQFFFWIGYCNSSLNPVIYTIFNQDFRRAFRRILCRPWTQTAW
Test: Displacement of [3H]RX821002 from human alpha2B receptor stably expressed in HEK293T cells by Cheng-Prusoff equation analysis
Assay type: cell-based
Details: not given

Compound | Ki [nM]
C#Cc1cc(Nc2ccccc2C(=O)O)cc(C(F)(F)F)c1 | 16000

Molecular target: T4, Alpha-2C adrenergic receptor (Homo sapiens, UniProt P18825)
T4 sequence (P18825 whole entry): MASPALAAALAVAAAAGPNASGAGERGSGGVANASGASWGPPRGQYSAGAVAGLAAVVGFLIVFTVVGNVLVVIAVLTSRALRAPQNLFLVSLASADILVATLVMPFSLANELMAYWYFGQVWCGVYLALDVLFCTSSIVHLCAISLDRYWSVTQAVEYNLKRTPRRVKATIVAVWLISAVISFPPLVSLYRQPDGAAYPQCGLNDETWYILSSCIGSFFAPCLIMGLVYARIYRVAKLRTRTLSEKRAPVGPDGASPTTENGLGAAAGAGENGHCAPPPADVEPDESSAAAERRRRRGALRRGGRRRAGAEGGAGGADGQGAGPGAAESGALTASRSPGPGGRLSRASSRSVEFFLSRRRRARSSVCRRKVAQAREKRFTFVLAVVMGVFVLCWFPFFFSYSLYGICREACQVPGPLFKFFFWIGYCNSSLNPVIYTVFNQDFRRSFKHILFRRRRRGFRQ
Test: Displacement of [3H]RX821002 from human alpha2C receptor stably expressed in HEK293T cells by Cheng-Prusoff equation analysis
Assay type: cell-based
Details: not given

Compound | Ki [nM]
C#Cc1cc(Nc2ccccc2C(=O)O)cc(C(F)(F)F)c1 | 17000

Molecular target: T5, D(2) dopamine receptor (Homo sapiens, UniProt P14416)
Test: Displacement of [3H]methylspiperone from human D2S receptor stably expressed in CHO cells by Cheng-Prusoff equation analysis
Assay type: cell-based
Details: not given

T5 sequence (P14416 whole entry): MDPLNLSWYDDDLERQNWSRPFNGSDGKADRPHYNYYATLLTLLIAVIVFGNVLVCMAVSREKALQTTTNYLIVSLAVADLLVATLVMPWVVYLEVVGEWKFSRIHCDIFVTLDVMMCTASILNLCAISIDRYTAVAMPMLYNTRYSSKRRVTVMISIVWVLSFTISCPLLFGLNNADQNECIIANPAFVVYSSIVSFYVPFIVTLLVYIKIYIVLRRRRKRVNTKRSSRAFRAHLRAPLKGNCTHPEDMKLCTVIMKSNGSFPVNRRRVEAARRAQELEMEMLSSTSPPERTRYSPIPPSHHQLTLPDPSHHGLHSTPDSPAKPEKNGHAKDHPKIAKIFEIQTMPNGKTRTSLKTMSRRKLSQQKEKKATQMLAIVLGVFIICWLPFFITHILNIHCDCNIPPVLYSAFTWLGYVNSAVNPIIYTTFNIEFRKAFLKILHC

Compound | Ki [nM]
Cc1cc(C(F)(F)F)nc(Nc2ccccc2-c2nnn[nH]2)n1 | 7300

Molecular target: D(3) dopamine receptor (Homo sapiens, UniProt P35462)
Test: Displacement of [3H]methylspiperone from human D3 receptor stably expressed in HEK293T cells by Cheng-Prusoff equation analysis
Assay type: cell-based
Details: not given

D(3) dopamine receptor, sequence (P35462 whole entry): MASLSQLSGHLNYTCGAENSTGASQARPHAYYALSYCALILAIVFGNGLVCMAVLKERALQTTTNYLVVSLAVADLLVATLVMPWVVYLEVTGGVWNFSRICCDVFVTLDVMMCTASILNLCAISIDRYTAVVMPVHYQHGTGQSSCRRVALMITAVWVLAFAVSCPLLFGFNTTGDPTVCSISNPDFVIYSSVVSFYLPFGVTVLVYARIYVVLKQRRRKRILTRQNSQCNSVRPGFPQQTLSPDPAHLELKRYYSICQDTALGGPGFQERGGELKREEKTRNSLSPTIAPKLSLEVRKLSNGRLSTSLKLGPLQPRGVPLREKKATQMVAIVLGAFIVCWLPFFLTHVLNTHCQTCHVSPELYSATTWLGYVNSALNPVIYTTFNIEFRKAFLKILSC

Compound | Ki [nM]
Cc1cc(C(F)(F)F)nc(Nc2ccccc2-c2nnn[nH]2)n1 | 1100

Molecular target: T5, D(2) dopamine receptor
Test: Displacement of [3H]methylspiperone from human D2L receptor stably expressed in CHO cells by Cheng-Prusoff equation analysis
Assay type: cell-based
Details: not given

Compound | Ki [nM]
Cc1cc(C(F)(F)F)nc(Nc2ccccc2-c2nnn[nH]2)n1 | 16000

Molecular target: T6, Muscarinic acetylcholine receptor M2 (Homo sapiens, UniProt P08172)
T6 sequence (P08172 whole entry): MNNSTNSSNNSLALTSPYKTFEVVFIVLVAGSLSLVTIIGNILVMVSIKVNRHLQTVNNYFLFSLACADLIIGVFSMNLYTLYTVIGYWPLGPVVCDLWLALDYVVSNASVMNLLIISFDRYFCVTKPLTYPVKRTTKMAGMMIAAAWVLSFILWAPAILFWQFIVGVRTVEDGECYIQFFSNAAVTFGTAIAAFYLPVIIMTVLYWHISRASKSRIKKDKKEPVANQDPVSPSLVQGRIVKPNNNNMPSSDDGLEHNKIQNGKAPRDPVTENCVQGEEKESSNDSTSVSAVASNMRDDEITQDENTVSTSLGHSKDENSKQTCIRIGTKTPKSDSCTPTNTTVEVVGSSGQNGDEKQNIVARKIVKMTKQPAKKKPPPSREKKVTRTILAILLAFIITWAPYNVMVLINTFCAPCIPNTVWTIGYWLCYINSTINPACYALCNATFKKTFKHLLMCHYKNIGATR
Test: Displacement of [3H]NMS from human M2 receptor stably expressed in HEK293T cells by Cheng-Prusoff equation analysis
Assay type: cell-based
Details: not given

Compound | Ki [nM]
Cc1cc(C(F)(F)F)nc(Nc2ccccc2-c2nnn[nH]2)n1 | 2300

Molecular target: T1, Taste receptor type 2 member 14
Test: Partial agonist activity at human TAS2R14 transfected in HEK293T cells assessed as IP1 accumulation measured after 150 mins by IP1 accumulation assay
Assay type: cell-based
Details: not given

Compound | EC50 [nM]
FC(F)(F)c1cc(Nc2ccccc2-c2nnn[nH]2)cc(C(F)(F)F)c1 | 100

Molecular target: T2, Taste receptor type 2 member 14 (Homo sapiens)
Test: Partial agonist activity at human TAS2R14 transfected in HEK293T cells assessed as IP1 accumulation measured after 150 mins by IP1 accumulation assay relative to control
Assay type: cell-based
Details: filed as partial agonist

Compound | Emax [%]
FC(F)(F)c1cc(Nc2ccccc2-c2nnn[nH]2)cc(C(F)(F)F)c1 | 80
